Data: ChEMBL document CHEMBL3886380, “Oxazole derivatives useful as modulators of FAAH” (2015)

Molecular target: T1, Fatty-acid amide hydrolase 1 (Homo sapiens, UniProt O00519)
T1 sequence (O00519 whole entry): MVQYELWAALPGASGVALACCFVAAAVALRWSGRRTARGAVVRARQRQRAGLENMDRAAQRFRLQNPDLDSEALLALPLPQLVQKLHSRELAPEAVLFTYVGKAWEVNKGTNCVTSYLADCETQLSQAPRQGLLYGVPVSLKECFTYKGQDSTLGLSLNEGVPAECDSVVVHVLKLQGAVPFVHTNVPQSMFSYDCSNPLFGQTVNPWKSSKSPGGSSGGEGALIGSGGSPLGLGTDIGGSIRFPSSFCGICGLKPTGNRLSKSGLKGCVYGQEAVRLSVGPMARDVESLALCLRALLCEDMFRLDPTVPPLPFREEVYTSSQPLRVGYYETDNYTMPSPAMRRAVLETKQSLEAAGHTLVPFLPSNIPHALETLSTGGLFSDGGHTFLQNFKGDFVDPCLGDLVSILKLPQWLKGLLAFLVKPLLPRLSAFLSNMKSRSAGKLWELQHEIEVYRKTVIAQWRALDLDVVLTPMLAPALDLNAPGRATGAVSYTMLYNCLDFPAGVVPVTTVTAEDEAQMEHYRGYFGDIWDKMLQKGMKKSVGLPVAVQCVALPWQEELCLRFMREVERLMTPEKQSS
Experiment: FAAH Assay: Enzyme activity was demonstrated in a radioenzymatic test based on measuring the product of hydrolysis (ethanolamine [3]H) of anandamide [ethanolamine 1-^3H] (American Radiolabeled Chemicals; 1 mCi/ml) with FAAH (Life Sciences (1995), 56, 1999-2005 and Journal of Pharmacology and Experimented Therapeutics (1997), 283, 729-734), Analytical. Biochemistry (2003), 318, 270-5. In …

Row | Structure (SMILES) | IC50 [µM]
1 | CN1CCN(CCOC(=O)N2CCC(c3nc(-c4ccc([S+](C)[O-])cc4)c(Sc4ccc(Cl)cn4)o3)CC2)CC1 (configuration not stated) | 3.09
2 | C[N+]1(C)CCN(c2ccc(-c3nc(C4CCOCC4)oc3Sc3ccc(Cl)cc3)cn2)CC1 | 9.15
